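These data come from cells grown in 96-well plates and exposed to compound for 48 hours at five concentrations. Abbreviation: GI50, concentration required for 50% inhibition of growth. TGI: concentration producing complete growth inhibition.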
How the values were obtained:
Assay in all cases: inhibition of tumour cell growth, NCI panel, 48 h; in the data active = GI50 below about 0.43 µM; inactive = the rest
786-0 renal = test system: 786-0 renal
A498 renal = test system: A498 renal
A549 NSCLC = test system: A549 NSCLC
ACHN renal = test system: ACHN renal
BT-549 breast = test system: BT-549 breast
CAKI-1 renal = test system: CAKI-1 renal
CCRF-CEM leukemia = test system: CCRF-CEM leukemia
COLO 205 colon = test system: COLO 205 colon
DU-145 prostate = test system: DU-145 prostate
EKVX NSCLC = test system: EKVX NSCLC
HCC-2998 colon = test system: HCC-2998 colon
HCT-116 colon = test system: HCT-116 colon
HCT-15 colon = test system: HCT-15 colon
HOP-62 NSCLC = test system: HOP-62 NSCLC
HOP-92 NSCLC = test system: HOP-92 NSCLC
HS 578T breast = test system: HS 578T breast
HT29 colon = test system: HT29 colon
IGROV1 ovarian = test system: IGROV1 ovarian
K-562 leukemia = test system: K-562 leukemia
KM12 colon = test system: KM12 colon
LOX IMVI melanoma = test system: LOX IMVI melanoma
M14 melanoma = test system: M14 melanoma
MCF7 breast = test system: MCF7 breast
MDA-MB-231 breast = test system: MDA-MB-231 breast
MDA-MB-435 = test system: MDA-MB-435
MOLT-4 leukemia = test system: MOLT-4 leukemia
NCI-H226 lung = test system: NCI-H226 lung
NCI-H23 lung = test system: NCI-H23 lung
NCI-H522 lung = test system: NCI-H522 lung
NCI/ADR-RES ovarian = test system: NCI/ADR-RES ovarian
OVCAR-3 ovarian = test system: OVCAR-3 ovarian
OVCAR-4 ovarian = test system: OVCAR-4 ovarian
OVCAR-5 ovarian = test system: OVCAR-5 ovarian
OVCAR-8 ovarian = test system: OVCAR-8 ovarian
PC-3 prostate = test system: PC-3 prostate
RPMI-8226 leukemia = test system: RPMI-8226 leukemia
RXF 393 renal = test system: RXF 393 renal
SF-268 CNS = test system: SF-268 CNS
SF-295 CNS = test system: SF-295 CNS
SF-539 CNS = test system: SF-539 CNS
SK-MEL-2 melanoma = test system: SK-MEL-2 melanoma
SK-MEL-28 melanoma = test system: SK-MEL-28 melanoma
SK-MEL-5 melanoma = test system: SK-MEL-5 melanoma
SK-OV-3 ovarian = test system: SK-OV-3 ovarian
SN12C renal = test system: SN12C renal
SNB-19 CNS = test system: SNB-19 CNS
SNB-75 CNS = test system: SNB-75 CNS
SW-620 colon = test system: SW-620 colon
T-47D breast = test system: T-47D breast
TK-10 renal = test system: TK-10 renal
U251 CNS = test system: U251 CNS
UACC-257 melanoma = test system: UACC-257 melanoma
UACC-62 melanoma = test system: UACC-62 melanoma
UO-31 renal = test system: UO-31 renal
HL-60(TB) leukemia = test system: HL-60(TB) leukemia
NCI-H460 lung = test system: NCI-H460 lung

NC1CC(=O)c2ccccc21 (stereo unspecified)
> 100 µM: TGI (786-0 renal) | TGI (A498 renal) | TGI (A549 NSCLC) | TGI (ACHN renal) | TGI (BT-549 breast) | TGI (CAKI-1 renal) | TGI (CCRF-CEM leukemia) | TGI (COLO 205 colon) | TGI (DU-145 prostate) | TGI (EKVX NSCLC) | TGI (HCC-2998 colon) | TGI (HCT-116 colon) | TGI (HCT-15 colon) | TGI (HOP-62 NSCLC) | TGI (HOP-92 NSCLC) | TGI (HS 578T breast) | TGI (HT29 colon) | TGI (IGROV1 ovarian) | TGI (K-562 leukemia) | TGI (KM12 colon) | TGI (LOX IMVI melanoma) | TGI (M14 melanoma) | TGI (MCF7 breast) | TGI (MDA-MB-231 breast) | TGI (MDA-MB-435) | TGI (MOLT-4 leukemia) | TGI (NCI-H226 lung) | TGI (NCI-H23 lung) | TGI (NCI-H522 lung) | TGI (NCI/ADR-RES ovarian) | TGI (OVCAR-3 ovarian) | TGI (OVCAR-4 ovarian) | TGI (OVCAR-5 ovarian) | TGI (OVCAR-8 ovarian) | TGI (PC-3 prostate) | TGI (RPMI-8226 leukemia) | TGI (RXF 393 renal) | TGI (SF-268 CNS) | TGI (SF-295 CNS) | TGI (SF-539 CNS) | TGI (SK-MEL-2 melanoma) | TGI (SK-MEL-28 melanoma) | TGI (SK-MEL-5 melanoma) | TGI (SK-OV-3 ovarian) | TGI (SN12C renal) | TGI (SNB-19 CNS) | TGI (SNB-75 CNS) | TGI (SW-620 colon) | TGI (T-47D breast) | TGI (TK-10 renal) | TGI (U251 CNS) | TGI (UACC-257 melanoma) | TGI (UACC-62 melanoma) | TGI (UO-31 renal)

CCN1C2=C(SC(=S)C1=C1SC(C(=O)OC)=C(C(=O)OC)S1)SC(=Nc1ccc(OC)cc1)C2=O
3.55 µM: TGI (SF-295 CNS)
3.96 µM: TGI (NCI-H522 lung)
33.3 µM: TGI (HCT-15 colon)
3.08 µM: TGI (SK-MEL-5 melanoma)
10.8 µM: TGI (SNB-19 CNS)
3.75 µM: TGI (M14 melanoma)
3.77 µM: TGI (SF-539 CNS)
5.37 µM: TGI (A498 renal)
inactive: GI50 (786-0 renal) 1.8 µM | GI50 (A498 renal) 2.03 µM | GI50 (A549 NSCLC) 13.1 µM | GI50 (ACHN renal) 1.82 µM | GI50 (BT-549 breast) 1.71 µM | GI50 (CAKI-1 renal) 1.81 µM | GI50 (CCRF-CEM leukemia) 2.09 µM | GI50 (COLO 205 colon) 1.92 µM | GI50 (DU-145 prostate) 1.73 µM | GI50 (EKVX NSCLC) 3.62 µM | GI50 (HCC-2998 colon) 1.95 µM | GI50 (HCT-116 colon) 1.59 µM | GI50 (HCT-15 colon) 3.02 µM | GI50 (HL-60(TB) leukemia) 1.79 µM | GI50 (HOP-62 NSCLC) 1.95 µM | GI50 (HOP-92 NSCLC) 2.97 µM | GI50 (HS 578T breast) 3.93 µM | GI50 (K-562 leukemia) 2.36 µM | GI50 (KM12 colon) 1.67 µM | GI50 (LOX IMVI melanoma) 1.69 µM | GI50 (M14 melanoma) 1.75 µM | GI50 (MCF7 breast) 1.9 µM | GI50 (MDA-MB-231 breast) 3.39 µM | GI50 (MDA-MB-435) 2.21 µM | GI50 (MOLT-4 leukemia) 1.54 µM | GI50 (NCI-H226 lung) 2.25 µM | GI50 (NCI-H23 lung) 2.27 µM | GI50 (NCI-H460 lung) 2.02 µM | GI50 (NCI-H522 lung) 1.59 µM | GI50 (NCI/ADR-RES ovarian) 3.05 µM | GI50 (OVCAR-3 ovarian) 1.79 µM | GI50 (OVCAR-5 ovarian) 2.37 µM | GI50 (OVCAR-8 ovarian) 2.82 µM | GI50 (PC-3 prostate) 3.01 µM | GI50 (RPMI-8226 leukemia) 2.38 µM | GI50 (RXF 393 renal) 1.88 µM | GI50 (SF-268 CNS) 2.56 µM | GI50 (SF-295 CNS) 1.31 µM | GI50 (SF-539 CNS) 1.86 µM | GI50 (SK-MEL-2 melanoma) 2.09 µM | GI50 (SK-MEL-28 melanoma) 1.69 µM | GI50 (SK-MEL-5 melanoma) 1.63 µM | GI50 (SN12C renal) 2.76 µM | GI50 (SNB-19 CNS) 2.89 µM | GI50 (SNB-75 CNS) 1.1 µM | GI50 (SW-620 colon) 1.77 µM | GI50 (T-47D breast) 2.16 µM | GI50 (TK-10 renal) 5.08 µM | GI50 (U251 CNS) 1.65 µM | GI50 (UACC-257 melanoma) 1.76 µM | GI50 (UACC-62 melanoma) 1.73 µM
7.64 µM: TGI (SF-268 CNS)
5.75 µM: TGI (MCF7 breast)
> 100 µM: TGI (CCRF-CEM leukemia) | TGI (HS 578T breast) | TGI (K-562 leukemia) | TGI (MDA-MB-231 breast) | TGI (OVCAR-8 ovarian) | TGI (PC-3 prostate) | TGI (SN12C renal) | TGI (TK-10 renal)
3.98 µM: TGI (RXF 393 renal)
2.53 µM: TGI (SNB-75 CNS)
3.27 µM: TGI (U251 CNS)
5.29 µM: TGI (MOLT-4 leukemia) | TGI (SK-MEL-2 melanoma)
3.25 µM: TGI (SK-MEL-28 melanoma)
5.88 µM: TGI (T-47D breast)
21.3 µM: TGI (EKVX NSCLC)
6.19 µM: TGI (OVCAR-5 ovarian)
3.87 µM: TGI (UACC-257 melanoma)
3.7 µM: TGI (SW-620 colon)
7.19 µM: TGI (NCI/ADR-RES ovarian)
5.26 µM: TGI (NCI-H226 lung)
3.11 µM: TGI (HCT-116 colon)
4.06 µM: TGI (BT-549 breast)
6.83 µM: TGI (HL-60(TB) leukemia)
9.19 µM: TGI (RPMI-8226 leukemia)
5.55 µM: TGI (MDA-MB-435)
3.8 µM: TGI (HOP-62 NSCLC)
3.39 µM: TGI (OVCAR-3 ovarian)
3.43 µM: TGI (DU-145 prostate) | TGI (LOX IMVI melanoma)
26.1 µM: TGI (HOP-92 NSCLC)
3.66 µM: TGI (HCC-2998 colon)
3.84 µM: TGI (UACC-62 melanoma)
4.17 µM: TGI (NCI-H23 lung)
3.13 µM: TGI (KM12 colon)
3.34 µM: TGI (786-0 renal)
3.58 µM: TGI (ACHN renal)
3.9 µM: TGI (CAKI-1 renal)
4.65 µM: TGI (NCI-H460 lung)
5.74 µM: TGI (COLO 205 colon)
62.5 µM: TGI (A549 NSCLC)
